Earlier results, collected in publication PMC2833348 (Bioorganic & medicinal chemistry letters, 2010).

Test system: cell - cell fusion (CCF)
Conditions: read-out: IC50 against cell - cell fusion (CCF)

COc1ccc(S(=O)(=O)O)cc1/N=N/c1c(S(=O)(=O)O)cc2cc(Nc3nc(Nc4ccccc4)nc(Nc4cc(C)c(/N=N/c5cc(S(=O)(=O)O)cc6cc(S(=O)(=O)O)cc(O)c56)cc4OC)n3)ccc2c1O [ADS-J1]
IC50: 4.2 µM
